In patent US9504248B2, “Antimicrobial composition” (Rohm and Haas Company, priority 2011, dated 2016):
≈ marks a conversion by molar mass, not a printed value.

Assays:
Format in all cases: cell-based
[1] = test system: Escherichia coli (10536 strain); experiment: 15 second contact suspension kill assay (Example 1 protocol, also Example 3); conditions: Escherichia coli, 15 s; component alone; lowest tested concentration giving zero bacterial survival after 15 s; upper boundary; read-out: Minimum biocidal concentration (MBC)
Excerpt: The efficacies of antimicrobial agents can be usefully compared by determining the Minimum Biocidal Concentration (MBC). The MBC is defined as the lowest absolute concentration of the particular active that provides complete kill (zero bacterial growth). The differing behaviours of inhibitory antimicrobtals in Isolation and mixtures have been widely explored using the concept of the Fractional Concentration and Fractional Inhibitory Concentration (FIC). See for instance J R W Lambert and R Lambert, J. Appl. Microblol 95, 734 (2003); T. Jadavji. C G Prober and R Cheung. Antimicrobial Agents and Chemotherapy 26, 91 (1984), and WO 2004/006876. These parameters can be defined as follows:
[formula] [formula] By analogy the Fractional Biocidal Concentration (FBC) is given by:
Antimicrobial efficacy is tested against a representative pathogenic bacterial organism, Gram negative Escherichia coli. Concentrations of actives are expressed in terms of the percentage weight/volume (% w/v) throughout Example 1.
An overnight culture of Escherichia coli (10536 strain) was prepared in 50 ml total volume of TSB broth, grown for ca. 18 hrs at 37° C. and shaken at 150 rpm. 1 ml of this overnight E. coli culture was transferred to 50 ml of fresh TSB broth and incubated at 37° C. at 150 rpm for ca. 4 hours. This culture was separated into equal volumes and centrifuged at 4000 rpm for 15 minutes, washed with sterile saline (0.85% NaCl), centrifuged once more and re-suspended in saline to give a final concentration of 0.8 OD620 equivalent to about 10^8 cells per milliliter for this particular organism. Here, OD620 indicates the absorbance of a sample in a cuvette of 1.0 cm path length at a wavelength of 620 nm. This bacterial stock was used for assaying against antimicrobial actives (in triplicate).
The following assay describes the testing of 8 materials using 6 dilutions across half of a 96-well micro titre plate (MTP). Using this approach it is possible to assay 16 actives (without replicates) with one full dilution plate, replicating this set up in two halves of the plate columns, 1-6 and 7-12.
1M solutions of the test actives were prepared in dimethylsulphoxide (DMSO).
Aliquots (270 μl) of the materials at 1.11 times the final concentration were dispensed into the wells of the MTP along one column (A1-H1). This MTP was labelled as the “Screening plate”.
In another MTP, labelled as the “Dilution plate”, 270 μl of D/E neutralising solution from DIFCO Composition was added to column 1. The composition of the neutralising solution was as follows: pancreatic digest of casein, 5.0 g/L; Yeast Extract, 2.5 g/L; Dextrose, 10 g/L, sodium thioglycollate, 1.0 g/L, sodium thiosulphate, 6.0 g/L; sodium bisulphite, 2.5 g/L; Polysorbate 80, 5.0 g/L; lecithin 7.0 g/L; bromocresol purple, 0.02 g/L with a pH in the range 7.6±0.2.
270 μl of tryptone diluent solution was added to all the remaining wells of the Dilution MTP (columns 2-6).
Bacterial stock (30 μl) was then added to the prepared 270 μl of the solution of actives in the Screening Plate and mixed, using a multichannel pipette with 8 tips to aspirate and dispense the same volume of bacterial stock in parallel to 8 wells in rows A-H. After a contact time of 15 seconds, the mixtures were quenched by transferring 30 μl volumes of the mixtures into the 270 μl D/E neutralising solution in the prepared dilution plate, using aspiration to mix. After exactly 5 minutes in the DIE neutralising solution, 30 μl volumes were transferred from column 1 to column 2 of the Dilution MTP and mixed, before transferring further 30 μl volumes from column 2 into column 3. This process was repeated serially diluting the bacteria across the plate to column 6.
30 μl volumes from each well in the Dilution MTP were transferred onto pre-labelled segment of Tryptone Soya Agar (TSA) plates starting from the lowest bacterial concentration (highest dilution, column 6) to the highest bacterial concentration (column 1).

[2] = test system: Escherichia coli (E. coli - ATCC #10536); experiment: High resolution MBC synergy assay in phosphate buffer containing 35% dipropylene glycol, 15 seconds (Example 2); conditions: 15 s, complete kill; phosphate buffer with 35% DPG
Protocol: In this Example, a wide range of combinations of chemicals was tested by conducting high resolution MBC assays of monosubstituted phenols in the presence of various concentrations of terpineol. […] High resolution MBCs were determined by adding varying amounts of microbicide to one column of a microtiter plate and doing subsequent […] dilutions using an automated liquid handling system to obtain a series of endpoints ranging from 0.002% to 1% of the test compound. The MBC plate was inoculated one column at a time with the test microorganism. An aliquot of the inoculated well was transferred at 15 seconds to a plate containing a neutralizing agent (D/E Neutralizing Broth), mixed and held for 5 minutes before being transferred to a growth plate containing trypticase soy broth (TSB). The TSB plate was incubated at 37° C. and read for the presence/absence of growth at 24 hours.
This microorganism is representative of natural contaminants in many consumer and industrial applications.

[3] = test system: Escherichia coli (E. coli - ATCC #10536); experiment: Automated assessment of efficacy in surfactant base, 15 seconds exposure, OD450/OD590 readout (Example 4); conditions: for antimicrobial action in combination with terpineol in the presence of surfactant (in words): cocoyl glycinate and lauroamphoacetate; for MBC: Escherichia coli, ATCC10536, 15 s, in 2.85% sodium cocoyl glycinate + 1.85% sodium lauroamphoacetate solution at pH 10, 15 s
Protocol: In these examples, the efficacy of combinations of monosubstituted phenols and terpineol were tested in a surfactant cleansing formulation comprising 2.85% sodium cocoyl glycinate and 1.85% sodium lauroamphoacetate. This corresponds to a 50% in use dilution with water of a typical neat formulation containing 5.7% cocoyl glycinate and 3.7% % sodium lauroamphoacetate during hand washing. Solutions were prepared such that the concentrations of the surfactant components and test actives were 1.1 times the final desired concentration in order to allow for dilution with the bacterial inoculum in the test. The solutions were manually adjusted to pH 10.0 by dropwise addition of sodium hydroxide solution, as measured with a pH meter at ambient temperature. Solutions of the monosubstituted phenols and/or terpineols were prepared at a maximum of 24 hours before testing. The same terpineol was used as in Example 1.
The efficacy of the combinations of the present invention was determined against the same bacterium as in Example 1, Escherichia coli (E. coli—ATCC #10536), at a concentration of approximately 1×10^8 bacteria per mL.
Tests were conducted using standard microtiter plate assays using an automated liquid handling system. 270 μl of the surfactant test solution was pipetted into each well of the microtitre plate (Nunc F Gamma Irradiated 96F untreated microtitre plates of clear polystyrene) and 30 μl of the bacterial suspension was then added. After exactly 15 seconds of bacterial exposure, a 30 μl volume of bacterial cells was withdrawn and transferred to 270 μl of D/E quench solution. After 5 minutes in the D/E quench, the optical density (OD) was measured for each plate in turn at two specific wavelengths (450 nm and 590 nm). These provide a dual check of antimicrobial activity, as the OD450 reading is specific for the yellow colour of D/E quench when bacterial growth is observed, whereas OD590 is specific for the initial purple colour of the D/E quench which is retained if no bacterial growth is observed. After the time zero OD measurements, plates were then incubated at 37° C. overnight (16 hours) before repeating the OD measurements. Delta OD values were calculated by subtracting […] at time=16 hours. Bacterial growth is observed as an increase in OD450 and a decrease in OD590. To identify antibacterially efficacious systems (those preventing appreciable bacterial growth after incubation), the following threshold changes in OD readings have been adopted: if (1). OD450 increases by less than 0.2 absorbance unit (AU) on incubation and (2). OD590 decreases by less than 0.35 AU on incubation. Conversely, where OD450 increases by more than […] after incubation, corresponding to a colour shift from purple to yellow, the test system allows bacterial growth and is not deemed efficacious. Four replicate measurements in the same plate have been made for each test system. The number of replicate wells showing either bacterial growth or no growth is also readily assessed by eye by following the colour change. Thymol and terpineol were tested both alone and in combination for comparison purposes.
In some selected cases, the combinations were also tested at the weight ratio 1:1.
The surfactants used are not themselves antimicrobially active against E. coli at the concentrations employed as shown by the results of Ex. (4:1) in Table 24. Thus, any antimicrobial efficacy can be ascribed to the monosubstituted phenols and/or terpineol. Table 25 presents MBC-values determined similarly as described for Example 1.

Structure (SMILES)	MBC [1]	MBC of first component alone (MBCA; Ca at Cb = 0) [2]	antimicrobial action in combination with terpineol in the presence of surfactant (in words) [3]	MBC [3]	MBC of second component (terpineol) alone (MBCB; Cb at Ca = 0) [2]
CCCc1ccc(O)cc1 [4-n-propylphenol]	750 µg/mL (≈ 5.51 mM)	0.3 weight %	enhanced antimicrobial action	–	–
CCC(C)c1ccccc1O (centres unmarked) [2-sec-butylphenol]	500 µg/mL (≈ 3.33 mM)	0.2 weight %	enhanced antimicrobial action	> 2000 µg/mL	–
CCCc1ccccc1O [2-n-propylphenol]	–	0.3 weight %	enhanced antimicrobial action	–	–
CC(C)(C)c1ccccc1O [2-tert-butylphenol]	500 µg/mL (≈ 3.33 mM)	0.2 weight %	enhanced antimicrobial action	1750 µg/mL	–
Oc1ccccc1C1CCCC1 [2-cyclopentylphenol]	1000 µg/mL (≈ 6.16 mM)	0.8 weight %	enhanced antimicrobial action	> 2000 µg/mL	–
Oc1ccccc1Cc1ccccc1 [2-benzylphenol]	500 µg/mL (≈ 2.71 mM)	0.6 weight %	enhanced antimicrobial action	> 2000 µg/mL	–
CCCCCc1ccc(O)cc1 [4-pentylphenol]	250 µg/mL (≈ 1.52 mM)	1.0 weight %	–	> 2000 µg/mL	–
CCCc1cccc(O)c1 [3-n-propylphenol]	–	0.05 weight %	enhanced antimicrobial action	1750 µg/mL	–
CC1=CCC(C(C)(C)O)CC1 (stereo not drawn) [alpha-terpineol]	–	–	–	–	0.6 weight %
Oc1ccc(Cc2ccccc2)cc1 [4-benzylphenol]	500 µg/mL (≈ 2.71 mM)	0.5 weight %	enhanced antimicrobial action	> 2000 µg/mL	–
Oc1ccc(C2CCCC2)cc1 [4-cyclopentylphenol]	800 µg/mL (≈ 4.93 mM)	0.6 weight %	–	> 2000 µg/mL	–
